Measurements: US10920248B2, “Method for mass-producing viniferin using stevioside from cell culture of grapevine tissue” (KOREA RESEARCH INSTITUTE OF BIOSCIENCE AND BIOTECHNOLOGY, priority 2016, dated 2021)

Legend:
grape callus = assay: Production of stilbene compounds in grape callus culture treated with activity-inducing agent and solubilizing agent, HPLC analysis of culture extract; assay type: cell-based, Vitis vinifera L. cv Campbell Early; details: with 100 μM MeJA, 7-day grape callus culture medium, 50 mM stevioside, FIG. 3
Method: Production of stilbene compounds was induced using the activity-inducing agent (100 μM MeJA) selected in Example 2 as described above. 20 ml of MS was inoculated with 2 g of grape callus, then cultured in a 125 ml flask for 7 days. Then, it was treated with 100 μM MeJA to obtain grape callus after 5 days. HPLC analysis was performed on the extract thereof. […] The experiment was performed to increase the production rate by solubilizing stilbene compound produced by treating with stevioside. As described above, 7-day grape callus culture was treated with 5 mM, 10 mM, 25 mM, and 50 mM stevioside at different concentrations or was treated with 100 μM MeJA and 5 mM, 10 mM, 2 5 mM, and 50 mM stevioside at different concentrations. After 5 days of culture, the samples were separated into callus and callus culture using a filter. The separated callus was filtered, followed by dehydration. The callus was frozen with liquid nitrogen and stored at −80° C. until extraction. The callus culture extract was directly extracted from the callus culture sample without storage so as to be used. […]

[1] = test system: resveratrol biosynthesis gene (STS, ROMT); assay: Transcription expression analysis (RT-PCR) of resveratrol biosynthesis genes after activity-inducing agent treatment of grape callus liquid culture; assay type: cell-based, Vitis vinifera L. cv Campbell Early; details: FIG. 2; for expression of the two genes (STS, ROMT): grape callus in MS1D liquid medium, 24 hours after treatment, RT-PCR
Method: In order to establish a production system of resveratrol from grape callus, transcription expression analysis was performed through a liquid culture of stabilized grape callus derived in Example 1 as described above. It was performed in which they were cultured in MS1D (4.4 g of MS, 30 g of sucrose, 0.5 g of MES, 0.1 g of Miyo-inositol, 0.4 mg thiamine HCl, and 1 mg/L of 2,4-D), which is called a Murashige & Skoog (MS) medium containing 1 mg/L of 2,4-D, liquid medium at 25° C. and 90 rpm for 7 days, followed by treatment with an activity-inducing agent. After 24 hours, total RNA was isolated from the grape callus (Kim C Y et al. 2010, Physiologia plantarum 139: 259-261). cDNA was synthesized from the isolated total RNA (5 μg) using First-Strand cDNA Synthesis Kit (Fermantas, Canada) as described in the instruction. The synthesized cDNA (20 μl) was diluted 2.5 times and then subjected to RT-PCR using 2 μl as a template for genes related to resveratrol and pterostilbene biosynthesis from the grape callus. PCR amplification was carried out by denaturation at 94° C. for 2 minutes, 25 cycles of at 95° C. for 30 seconds, 50° C. for 40 seconds, and 72° C. for 1 minute, and a final extension reaction at 72° C. for 10 minutes. The grape resveratrol, pterostilbene biosynthesis gene, and grapactin RT-PCR primers used for this experiment were as follows: […]
Various activity-inducing agents were used for the treatment so as to promote the production of stilbene compound. The activity-inducing agents used herein were methyl jasmonate (MeJA), abscisic acid (ABA), salicylic acid (SA), ethephon, flagellin 22 (Flg22), methyl viologen (MV), and chitosan. The results confirmed that the expression of the two genes increased when MeJA, SA, and Flg22 were used and that the gene expression was the highest when MeJA was used (see FIG. 2).

Row | Compound | content of the stilbene compound compared to the group untreated with stevioside (grape callus) | expression of the two genes (STS, ROMT) [1] | gene expression compared among activity-inducing agents ([1]; compared with ABA, SA, ethephon, Flg22, MV, chitosan)
1 | C=C1C[C@@]23CC[C@H]4[C@@](C)(CCC[C@@]4(C)C(=O)O[C@@H]4O[C@H](CO)[C@@H](O)[C@H](O)[C@H]4O)[C@@H]2CC[C@]1(O[C@@H]1O[C@H](CO)[C@@H](O)[C@H](O)[C@H]1O[C@@H]1O[C@H](CO)[C@@H](O)[C@H](O)[C@H]1O)C3 [stevioside] | significantly increased |  | 
2 | O=C(O)c1ccccc1O [SA, salicylic acid] |  | increased | 
3 | CC/C=C\CC1C(=O)CCC1CC(=O)OC (stereo not shown) [MeJA, methyl jasmonate] |  | increased | highest
